Reference: PMC5607274, “An iterative compound screening contest method for identifying target protein inhibitors using the tyrosine-protein kinase Yes” (Scientific Reports, 2017)

Target: T1, human recombinant Yes [a.a. 2–543 (end)] (Homo sapiens, UniProt P07947)
T1 construct: human recombinant Yes [a.a; 2–543 (end)]; purchased BPS Bioscience 40488
Experiment: ADP-Glo kinase assay, inhibition rates of Yes phosphorylation activity (first and second screening)
Assay type: biochemical
Details: first screening; mean of n = 4 wells; 10 μmol L−1 compound
Summary of the method: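 Hits from a first pass were rescreened after re-dissolution from fresh powder. The first pass reported the mean inhibition rate of quadruplicate wells per compound. Activity was that of recombinant human Yes [a.a. 2–543] kinase, read out with the ADP-Glo ADP-detection method.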

T1 sequence (P07947 2-543): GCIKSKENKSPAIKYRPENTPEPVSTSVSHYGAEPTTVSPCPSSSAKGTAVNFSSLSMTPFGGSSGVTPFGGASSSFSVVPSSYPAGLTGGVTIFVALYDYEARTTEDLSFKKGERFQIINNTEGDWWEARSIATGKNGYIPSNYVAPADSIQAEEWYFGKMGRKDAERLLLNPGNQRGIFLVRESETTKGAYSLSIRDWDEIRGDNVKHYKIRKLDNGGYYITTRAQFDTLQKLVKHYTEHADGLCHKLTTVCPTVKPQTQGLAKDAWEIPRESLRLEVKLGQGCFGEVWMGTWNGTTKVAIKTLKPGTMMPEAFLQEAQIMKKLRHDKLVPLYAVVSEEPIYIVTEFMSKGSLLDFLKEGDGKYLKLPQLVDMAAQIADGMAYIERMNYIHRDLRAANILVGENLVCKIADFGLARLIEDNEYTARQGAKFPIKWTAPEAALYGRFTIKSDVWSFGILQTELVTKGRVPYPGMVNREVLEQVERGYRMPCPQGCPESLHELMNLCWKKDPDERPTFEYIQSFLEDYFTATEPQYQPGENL

| Compound | First screening IR (inhibition rate) [%] |
| --- | --- |
| O=C(O)c1c2c(nc3ccccc13)/C(=C\c1ccc(O)c(Br)c1)CCC2 [Compound Z46036098] | -2 |
| O=C(/C=C/c1cn(-c2ccccc2)nc1-c1cccnc1)c1ccc(Cl)c([N+](=O)[O-])c1 [Compound Z46041361] | 19 |
| Cc1c(Nc2ccc(/C=C3/C(=O)Nc4ccc(Cl)cc43)cc2)c(=O)n(-c2ccccc2)n1C [Compound Z46051719] | 15 |
| O=C1Nc2ccccc2/C1=C\c1c(Cl)nc2sccn12 [Compound Z46060818] | 24 |
| C(=C\c1nc2cc(-c3ccccc3)ccc2o1)/c1cccnc1 [Compound Z46080472] | 11 |
| COc1cc(/C=C2/CC(C)Cc3c2nc2ccccc2c3C(=O)O)ccc1O (stereo not drawn) [Compound Z46107807] | -4 |
| CC1C/C(=C/c2ccccc2[N+](=O)[O-])c2nc3ccccc3c(C(=O)O)c2C1 (stereo not drawn) [Compound Z46107814] | 10 |
| COc1ccc(/C=C2/CC(C)Cc3c2nc2ccccc2c3C(=O)O)c(OC)c1 (stereo not drawn) [Compound Z46107821] | -10 |
| COc1ccccc1/C=C1\CC(C)Cc2c1nc1ccccc1c2C(=O)O (stereo not drawn) [Compound Z46107852] | -1 |
| CC1C/C(=C/c2ccc(Cl)c([N+](=O)[O-])c2)c2nc3ccccc3c(C(=O)O)c2C1 (stereo not drawn) [Compound Z46107857] | 11 |
| Cc1ccccc1/C=C1/CC(C)Cc2c1nc1ccccc1c2C(=O)O (stereo not drawn) [Compound Z46107859] | -3 |
| CC1C/C(=C/c2ccc(C#N)cc2)c2nc3ccccc3c(C(=O)O)c2C1 (stereo not drawn) [Compound Z46107862] | -2 |
| CNc1ccc(/C=C2/CC(C)Cc3c2nc2ccccc2c3C(=O)O)cc1[N+](=O)[O-] (stereo not drawn) [Compound Z46108034] | 11 |
| COc1cc(/C=C2/CC(C)Cc3c2nc2ccccc2c3C(=O)O)cc(Cl)c1O (stereo not drawn) [Compound Z46108144] | 3 |
| CC(C)(C)C1C/C(=C/c2ccc3c(c2)OCO3)c2nc3ccccc3c(C(=O)O)c2C1 (stereo not drawn) [Compound Z46108733] | 8 |
| CC(=O)Nc1ccc(/C=C2/CC(C(C)(C)C)Cc3c2nc2ccccc2c3C(=O)O)cc1 (stereo not drawn) [Compound Z46108738] | 26 |
| COC(=O)c1ccc(COc2ccc(/C=C3/CC(C(C)(C)C)Cc4c3nc3ccccc3c4C(=O)O)cc2OC)cc1 (stereo not drawn) [Compound Z46108841] | 15 |
| CN1C/C(=C/c2ccc3c(c2)OCO3)c2nc3ccccc3c(C(=O)O)c2C1 [Compound Z46114673] | -9 |
| CN1C/C(=C/c2ccc(F)cc2)c2nc3ccccc3c(C(=O)O)c2C1 [Compound Z46114693] | -2 |
| CN1C/C(=C/c2cccc(Br)c2)c2nc3ccccc3c(C(=O)O)c2C1 [Compound Z46114695] | -9 |
| COc1ccc(/C=C2/CN(C)Cc3c2nc2ccccc2c3C(=O)O)cc1 [Compound Z46114702] | -7 |
| CCc1ccc(/C=C2/CN(C)Cc3c2nc2ccccc2c3C(=O)O)cc1 [Compound Z46114754] | 0 |
| CCC(C)(C)C1C/C(=C/c2ccc(C(C)C)cc2)c2nc3ccccc3c(C(=O)O)c2C1 (stereo not drawn) [Compound Z46116606] | 13 |
| CCC(C)(C)C1C/C(=C/c2cc(Br)c(O)c(OC)c2)c2nc3ccccc3c(C(=O)O)c2C1 (stereo not drawn) [Compound Z46116622] | 5 |
| CCC(C)(C)C1C/C(=C\c2c(Cl)cccc2Cl)c2nc3ccccc3c(C(=O)O)c2C1 (stereo not drawn) [Compound Z46116634] | 45 |
| CCC(C)(C)C1C/C(=C/c2ccccc2Br)c2nc3ccccc3c(C(=O)O)c2C1 (stereo not drawn) [Compound Z46116650] | 23 |

More lines, now with the values ahead:

| First screening IR (inhibition rate) [%] | Compound |
| --- | --- |
| 11 | CCC(C)(C)C1C/C(=C/c2ccc(Sc3nncn3C)c([N+](=O)[O-])c2)c2nc3ccccc3c(C(=O)O)c2C1 (stereo not drawn) [Compound Z46116775] |
| 5 | CCN1C/C(=C/c2ccc(F)cc2)c2nc3ccccc3c(C(=O)O)c2C1 [Compound Z46146538] |
| 3 | COc1ccccc1N1CCN(Cc2csc(NC(C)=O)n2)CC1 [Compound Z46164581] |
| 14 | CCOc1ccc(NC(=O)c2ccccc2NC(=O)CN2CCOCC2)cc1 [Compound Z46179735] |
| 4 | CCN(C(=O)CN1CCN(Cc2ccc3c(c2)OCO3)CC1)c1c(N)n(Cc2ccccc2)c(=O)[nH]c1=O [Compound Z46204583] |
| -12 | O=C(CN1CCN(S(=O)(=O)c2cccc(Cl)c2Cl)CC1)NC1CCCCCC1 [Compound Z46278335] |
| -6 | CCN(CC(=O)N1N=C(c2ccc(OC)cc2)CC1c1ccco1)Cc1nc2ccccc2c(=O)[nH]1 (stereo not drawn) [Compound Z46301463] |
| -9 | CN(CCS(=O)(=O)c1cc(Cl)ccc1Cl)Cc1nc2ccccc2c(=O)[nH]1 [Compound Z46302626] |
| -9 | Cc1ccc(C)c(S(=O)(=O)CCN(C)Cc2nc3ccccc3c(=O)[nH]2)c1 [Compound Z46302631] |
| -12 | CN(CC(=O)N1CCc2ccccc2C1)Cc1nc2ccccc2c(=O)[nH]1 [Compound Z46302902] |
| 9 | CCOC(=O)c1c(-c2ccc(OC)cc2)csc1NC(=O)CN1CCN(c2cccc(OC)c2)CC1 [Compound Z46356995] |
| 5 | CCOC(=O)c1c(-c2ccc(OC)c(OC)c2)csc1NC(=O)CN1CCN(c2cccc(OC)c2)CC1 [Compound Z46357060] |
| 33 | CCN(C(=O)CN(C)CC(=O)Nc1ccc(Cl)cc1)c1cccc2ccccc12 [Compound Z46378572] |
| 3 | COc1cccc(NC(=O)CN(C)CC(=O)Nc2cc(Cl)ccc2C#N)c1 [Compound Z46385937] |
| 5 | CCOC(=O)c1c(-c2ccc(F)cc2)csc1NC(=O)CN1CCN(Cc2cc(OC)ccc2OC)CC1 [Compound Z46402002] |
| 1 | CCn1c(CN2CCN(C(=O)c3ccccc3)CC2)nc2cc(S(=O)(=O)N3CCOCC3)ccc21 [Compound Z46404320] |
| 2 | CCOC(=O)c1c(-c2ccc(OC)c(OC)c2)csc1NC(=O)CN1CCN(C(=O)c2ccccc2)CC1 [Compound Z46404770] |
| 0 | CCOC(=O)C1=C(CN2CCN(Cc3nc4sc5c(c4c(=O)[nH]3)CCCC5)CC2)NC(=O)NC1CC (stereo not drawn) [Compound Z46405175] |
| -4 | CCN(C(=O)CN(C)CC(=O)Nc1c(C)cc(C)cc1C)c1cccc2ccccc12 [Compound Z46455760] |

| First screening IR (inhibition rate) [%] | Compound |
| --- | --- |
| 2 | Cc1sc2nc(-c3cccc(NC(=O)CN4CCN(CC5CCCO5)CC4)c3)[nH]c(=O)c2c1C (stereo not drawn) [Compound Z46510296] |
| 46 | Cc1cccc(/C=C/c2cc(C(=O)O)c3ccccc3n2)c1 [Compound Z46532935] |
| 30 | COc1ccc2c(c1)CC/C(=C\c1ccc(Cl)c(Cl)c1)C2=O [Compound Z46584361] |
| -6 | COc1ccc2c(c1)CC/C(=C\c1cccc(C)c1)C2=O [Compound Z46584406] |
| 1 | O=C(/C=C/c1cc2ccccc2nc1N1CCOCC1)c1ccc(S(=O)(=O)N2CCCC2)cc1 [Compound Z46590414] |
| -8 | CN(C)c1ccc(/C=c2/s/c(=C/C(=O)C(C)(C)C)[nH]c2=O)cc1 [Compound Z46615661] |
| -11 | Cc1ccc(-n2c(=O)/c(=C/c3ccc4c(c3)OCO4)s/c2=C(/C#N)C(=O)NCCN2CCOCC2)c(C)c1 [Compound Z47840324] |
| 15 | Cc1ccc(C)c(-n2c(=O)/c(=C/c3ccc(OC(F)F)cc3)s/c2=C(/C#N)C(=O)NCCN2CCOCC2)c1 [Compound Z47852683] |
| 27 | CN(C)c1ccc(/C=c2/s/c(=C(/C#N)C(=O)NCCN3CCOCC3)n(Cc3ccco3)c2=O)cc1 [Compound Z48025165] |
| -3 | Cc1ccc(NC(=O)CC2SC(=Nc3ccccc3C)N(CCCN3CCOCC3)C2=O)c([N+](=O)[O-])c1 (stereo not drawn) [Compound Z48462494] |
| 25 | CCOC(=O)/C=c1\s/c(=C/c2ccc(N3CCCCC3)c([N+](=O)[O-])c2)c(=O)n1CC(=O)N1CCC(C)CC1 [Compound Z48712692] |
| -4 | CCOC(=O)/C=c1\s/c(=C/c2ccc(N3CCOCC3)c([N+](=O)[O-])c2)c(=O)n1CC(=O)N1CCC(C)CC1 [Compound Z48712790] |
| 31 | Cc1ccc(Cn2c(=O)/c(=C/c3ccc(N4CCOCC4)c([N+](=O)[O-])c3)s/c2=C/C(=O)C(C)(C)C)cc1 [Compound Z48770507] |
| -4 | N#C/C(=C(/O)CN1CCN(S(=O)(=O)c2ccccc2C#N)CC1)c1nc2ccccc2[nH]1 [Compound Z48805202] |
| 39 | NC(=O)c1cc(-c2csc(NCc3ccccc3)n2)ccc1O [Compound Z48850058] |
| 10 | Cc1ccc(CNc2nc(-c3ccc(O)c(C(N)=O)c3)cs2)cc1 [Compound Z48851233] |
| 4 | COc1ccc(Nc2nc(-c3ccc(Cl)s3)cs2)cc1 [Compound Z48857068] |
| -4 | Cl.Fc1ccc(-c2cc(-c3ccccc3)c3cc(Cl)ccc3n2)cc1 [Compound Z48950786] |
| 1 | COc1cccc(-c2cc(-c3ccccc3)c3cc(Cl)ccc3n2)c1.Cl [Compound Z48950797] |

Same assay, conditions: second screening, dissolved from fresh powder; n = 4; 10 μmol L−1 compound

| Compound | Second screening IR (inhibition rate) [%] |
| --- | --- |
| CN(C)c1ccc(/C=c2/s/c(=C(/C#N)C(=O)NCCN3CCOCC3)n(Cc3ccco3)c2=O)cc1 [Compound Z48025165] | -4 |
| NC(=O)c1cc(-c2csc(NCc3ccccc3)n2)ccc1O [Compound Z48850058] | 28 |
